Test results from patent US8889874B2, “Imidazolone-chalcone derivatives as potential anticancer agent and process for the preparation thereof” (Council of Scientific and Industrial Research, priority 2010, dated 2014).
Where two headings read alike, the source gives them in different places.

Experiments:
Format in all cases: cell-based, human
786-0 (renal) = experiment: NCI anticancer screen, SRB assay, 48 h
Summary of the method: (§1)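 Sulforhodamine B protein assay read cell growth after 48 h of continuous compound exposure. Dose-response curves per cell line used at least five 10-fold-diluted concentrations, within a panel of fifty-three human lines from nine tumour types.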

A498 (renal) = experiment: NCI anticancer screen, SRB assay, 48 h
Summary of the method: as §1

[1] = test system: A549/ATCC (non-small cell lung); experiment: NCI anticancer screen, SRB assay, 48 h
Summary of the method: as §1

HCT-116 (colon) = experiment: NCI anticancer screen, SRB assay, 48 h
Summary of the method: as §1

MCF7 (breast) = experiment: NCI anticancer screen, SRB assay, 48 h
Summary of the method: as §1

MDA-MB-435 (melanoma) = experiment: NCI anticancer screen, SRB assay, 48 h
Summary of the method: as §1

[2] = test system: NCI-H322M (non-small cell lung); experiment: NCI anticancer screen, SRB assay, 48 h
Summary of the method: as §1

OVCAR-4 (ovarian) = experiment: NCI anticancer screen, SRB assay, 48 h
Summary of the method: as §1

PC-3 (prostate) = experiment: NCI anticancer screen, SRB assay, 48 h; settings: for GI50: read-out: GI50
Summary of the method: as §1

[3] = test system: RPMI-8226 (leukemia cell line); experiment: NCI anticancer screen, SRB assay, 48 h
Summary of the method: as §1

RXF 393 (renal) = experiment: NCI anticancer screen, SRB assay, 48 h
Summary of the method: as §1

SF-295 (CNS) = experiment: NCI anticancer screen, SRB assay, 48 h
Summary of the method: as §1

SK-MEL-28 (melanoma) = experiment: NCI anticancer screen, SRB assay, 48 h
Summary of the method: as §1

SK-MEL-5 (melanoma) = experiment: NCI anticancer screen, SRB assay, 48 h
Summary of the method: as §1

SW-620 (colon) = experiment: NCI anticancer screen, SRB assay, 48 h
Summary of the method: as §1

U251 (CNS) = experiment: NCI anticancer screen, SRB assay, 48 h
Summary of the method: as §1

UO-31 (renal) = experiment: NCI anticancer screen, SRB assay, 48 h
Summary of the method: as §1

Breast cancer cell lines = experiment: NCI anticancer screen, SRB assay, panel summary
Method: (§2) Some of biological activity studies were carried out at the National Cancer Institute (NCI), Maryland, USA.
(§3) The compounds were evaluated for anticancer activity against fifty three human cancer cells derived from nine cancer types (leukemia cell line, non-small-cell lung cell line, colon cell line, CNS cell line, melanoma cell line, ovarian cell line, prostate cell line, and breast cancer cell line) as shown in Table 1. For each compound, dose response curves for each cell line were measured at a minimum of five concentrations at 10 fold dilutions. A protocol of 48 h continuous drug exposure was used and a sulforhodamine B (SRB) protein assay was used to estimate cell viability or growth.

CNS cancer cell lines = experiment: NCI anticancer screen, SRB assay, panel summary; settings: CNS panel
Method: as §2, §3

Colon cancer cell lines = experiment: NCI anticancer screen, SRB assay, panel summary; settings: Colon panel
Method: as §2, §3

[4] = test system: Leukemia cancer cell lines; experiment: NCI anticancer screen, SRB assay, panel summary; settings: Leukemia panel
Method: as §2, §3

[5] = test system: Melanoma cancer cell lines; experiment: NCI anticancer screen, SRB assay, panel summary; settings: Melanoma panel
Method: as §2, §3

[6] = test system: Non-small cell lung cancer cell lines; experiment: NCI anticancer screen, SRB assay, panel summary
Method: as §2, §3

[7] = test system: Ovarian cancer cell lines; experiment: NCI anticancer screen, SRB assay, panel summary; settings: Ovarian panel
Method: as §2, §3

[8] = test system: Prostate cancer cell lines; experiment: NCI anticancer screen, SRB assay, panel summary
Method: as §2, §3

Renal cancer cell lines = experiment: NCI anticancer screen, SRB assay, panel summary
Method: as §2, §3

[9] = 48 h exposure, SRB, read-out: GI50
[10] = log of concentration in mol/L causing 50% inhibition of net cell growth
[11] = log of concentration leading to 50% net cell death
[12] = log of concentration resulting in total inhibition of net cell growth

COc1ccc(-c2cn(-c3cccc(C(=O)/C=C/c4cc(OC)c(OC)c(OC)c4)c3)c(=O)[nH]2)cc1 [5b, 4-(4-methoxyphenyl)-1-3-[(E)-3-(3,4,5-trimethoxyphenyl)-2-propenoyl]phenyl-2,3-dihydro-1H-2-imidazolone]
pGI50 (-log of molar concentration causing 50% inhibition of net cell growth) (786-0 (renal)): 5.79 | GI50 (786-0 (renal); [9]): 1610 nM | pGI50 (-log of molar concentration causing 50% inhibition of net cell growth) (A498 (renal)): 5.38 | GI50 (A498 (renal); [9]): 4.21 µM | pGI50 (-log of molar concentration causing 50% inhibition of net cell growth) [1]: 4.93 | GI50 [1, 9]: 11.8 µM | pGI50 (-log of molar concentration causing 50% inhibition of net cell growth) (HCT-116 (colon)): 6.43 | GI50 (HCT-116 (colon); [9]): 370 nM | pGI50 (-log of molar concentration causing 50% inhibition of net cell growth) (MCF7 (breast)): 6.36 | GI50 (MCF7 (breast); [9]): 440 nM | pGI50 (-log of molar concentration causing 50% inhibition of net cell growth) (MDA-MB-435 (melanoma)): 5.73 | GI50 (MDA-MB-435 (melanoma); [9]): 1860 nM | pGI50 (-log of molar concentration causing 50% inhibition of net cell growth) [2]: 5.58 | GI50 [2, 9]: 2660 nM | pGI50 (-log of molar concentration causing 50% inhibition of net cell growth) (OVCAR-4 (ovarian)): 5.45 | GI50 (OVCAR-4 (ovarian); [9]): 3.57 µM | pGI50 (-log of molar concentration causing 50% inhibition of net cell growth) (PC-3 (prostate); PC-3): 5.21 | GI50 (PC-3 (prostate); PC-3, 48 h exposure, SRB): 6.22 µM | GI50 (PC-3 (prostate); one prostate cancer cell line (PC-3), exposure at least 48 hrs): 6.22 µM | pGI50 (-log of molar concentration causing 50% inhibition of net cell growth) [3]: 6.04 | GI50 [3, 9]: 920 nM | GI50 (RXF 393 (renal); RXF 393, 48 h exposure, SRB, read-out: GI50): 1920 nM | pGI50 (-log of molar concentration causing 50% inhibition of net cell growth) (RXF 393 (renal); RXF-393): 5.72 | pGI50 (-log of molar concentration causing 50% inhibition of net cell growth) (SF-295 (CNS)): 5.31 | GI50 (SF-295 (CNS); [9]): 4.95 µM | pGI50 (-log of molar concentration causing 50% inhibition of net cell growth) (SK-MEL-28 (melanoma)): 5.69 | GI50 (SK-MEL-28 (melanoma); [9]): 2030 nM | pGI50 (-log of molar concentration causing 50% inhibition of net cell growth) (SK-MEL-5 (melanoma)): 5.69 | GI50 (SK-MEL-5 (melanoma); [9]): 2030 nM | pGI50 (-log of molar concentration causing 50% inhibition of net cell growth) (SW-620 (colon)): 6.35 | GI50 (SW-620 (colon); [9]): 450 nM | pGI50 (-log of molar concentration causing 50% inhibition of net cell growth) (U251 (CNS)): 6.06 | GI50 (U251 (CNS); [9]): 880 nM | pGI50 (-log of molar concentration causing 50% inhibition of net cell growth) (UO-31 (renal)): 5.72 | GI50 (UO-31 (renal); [9]): 1910 nM | mean graph midpoint (MG_MID) of Log10 LC50 (Breast cancer cell lines): 4.91 | mean graph midpoint (MG_MID) of Log10 GI50 (Breast cancer cell lines; Breast panel, log of concentration in mol/L causing 50% inhibition of net cell growth): 5.61 | mean graph midpoint (MG_MID) of Log10 TGI (Breast cancer cell lines; Breast panel, log of concentration resulting in total inhibition of net cell growth): 4.86 | mean graph midpoint (MG_MID) of Log10 GI50 (CNS cancer cell lines; [10]): 5.54 | mean graph midpoint (MG_MID) of Log10 LC50 (CNS cancer cell lines; [11]): 4.55 | mean graph midpoint (MG_MID) of Log10 TGI (CNS cancer cell lines; [12]): 5.01 | mean graph midpoint (MG_MID) of Log10 GI50 (Colon cancer cell lines; [10]): 5.95 | mean graph midpoint (MG_MID) of Log10 LC50 (Colon cancer cell lines; [11]): 5.13 | mean graph midpoint (MG_MID) of Log10 TGI (Colon cancer cell lines; [12]): 5.58 | mean graph midpoint (MG_MID) of Log10 GI50 [4, 10]: 5.96 | mean graph midpoint (MG_MID) of Log10 TGI [4, 12]: 4.00 | mean graph midpoint (MG_MID) of Log10 GI50 [5, 10]: 5.72 | mean graph midpoint (MG_MID) of Log10 LC50 [5, 11]: 4.58 | mean graph midpoint (MG_MID) of Log10 TGI [5, 12]: 5.25 | mean graph midpoint (MG_MID) of Log10 LC50 [6]: 4.82 | mean graph midpoint (MG_MID) of Log10 GI50 ([6]; Non-small cell lung panel, log of concentration in mol/L causing 50% inhibition of net cell growth): 5.30 | mean graph midpoint (MG_MID) of Log10 TGI ([6]; Non-small cell lung panel, log of concentration resulting in total inhibition of net cell growth): 4.66 | mean graph midpoint (MG_MID) of Log10 GI50 [7, 10]: 5.58 | mean graph midpoint (MG_MID) of Log10 LC50 [7, 11]: 4.41 | mean graph midpoint (MG_MID) of Log10 TGI [7, 12]: 4.83 | mean graph midpoint (MG_MID) of Log10 GI50 [8, 10]: 5.21 | mean graph midpoint (MG_MID) of Log10 TGI [8, 12]: 4.41 | mean graph midpoint (MG_MID) of Log10 LC50 (Renal cancer cell lines): 4.46 | mean graph midpoint (MG_MID) of Log10 GI50 (Renal cancer cell lines; Renal panel, log of concentration in mol/L causing 50% inhibition of net cell growth): 5.60 | mean graph midpoint (MG_MID) of Log10 TGI (Renal cancer cell lines; Renal panel, log of concentration resulting in total inhibition of net cell growth): 5.12
